From patent publication US11000509B2, “Methods and compositions for daily ophthalmic administration of phentolamine to improve visual performance” (Ocuphire Pharma, Inc., priority 2013, dated 2021)
Structures can show the parent of a compound that is named as a salt. Marks after values point to notes of the source that are not given here.

How the values were obtained:
[1] = system: eyes of patients suffering from severe night vision difficulty; experiment: Example 1 clinical study: eye redness, CCLRU Redness Grading Scale regraded 0, 0.5, 1, 2, 3; type: in vivo, humans
Source text: Sixty patients with normal day vision (i.e., 20/40 or better) but which suffer from severe night vision difficulty were enrolled in the study. During the first period of the study, patients were randomized into three groups. The groups received either placebo, 0.5% (w/v) phentolamine mesylate, or 1.0% (w/v) phentolamine mesylate once daily for 15 days. […] During the second period of the study, all sixty patients were instructed to administer an ophthalmic solution of phentolamine mesylate (1% (w/v)) as needed, but no more than once daily to each eye. The ophthalmic solution of phentolamine mesylate contained: 1% (w/v) phentolamine mesylate, 4% (w/v) mannitol, 3 mM sodium acetate, and water. The placebo was a solution containing 4% (w/v) mannitol, 3 mM sodium acetate, and water.
Patients were to meet with a clinician for evaluation on study days 1, 4, 8, 15, and a post-dosing follow-up evaluation three or more days after administering the last dose in the second period. […]

[2] = system: eyes of patients with pupil size in dim light of greater than 7 mm; experiment: Example 2 clinical study: monocular low contrast visual acuity under photopic conditions (5% tint chart); type: in vivo, humans; conditions: for mean low contrast acuity compared to baseline: paired t-test
Protocol: Sixteen patients were randomized into four groups (of four subjects each). Each group was treated on three successive study visits separated by at least 4 days with one drop of ophthalmic oxymetazoline solution (Visine LR®) in each eye followed by one drop test article in each eye. The test article was a 0.2% (w/v) phentolamine mesylate solution, 0.4% (w/v) phentolamine mesylate solution, 0.8% (w/v) phentolamine mesylate solution, or placebo. Test articles contained the designed amount of phentolamine mesylate in a solution of Tears Naturale II® (from Alcon Labs). Placebo was just Tears Naturale II® (from Alcon Labs). Tears Naturale II® (from Alcon Labs) contains Dextran 70 (0.1% by weight), Hydroxypropyl Methylcellulose 2910 (0.3% by weight), Polyquarternium-1 (0.001% by weight), potassium chloride, water (purified), sodium borate, sodium chloride, and hydrochloric acid and/or sodium hydroxide as necessary to adjust the pH. The patients' eye redness and pupil diameters were recorded at baseline (i.e., prior to treatment administration), and at 30 minutes, 1 hour, 2 hours, 4 hours, and 8 hours after administration of test articles. The incidence of any treatment-emergent adverse events was also recorded. Total study duration was approximately nine hours.
Eye redness of patients' eyes was evaluated by the research assistant and recorded as a single integer of value 0 (no redness) to 4 (extreme redness) at baseline and each time point after treatment. Pupil diameters were measured to within 0.1 mm for each eye at baseline and each subsequent time point using a NeurOptics™ pupilometer. Monocular high contrast visual acuity was measured for each eye under photopic conditions at baseline and each subsequent time point in a darkened room using a Precision Vision™ High Contrast (100% tint) Visual Acuity Chart (Catalog #2102) backlit by the Precision Vision Illumination Box. Monocular low contrast visual acuity was measured for each eye under photopic conditions at baseline and each subsequent time point in a darkened room using a Precision Vision™ Low Contrast (5% tint) Visual Acuity Chart (Catalog #2186) backlit by the Precision Vision Illumination Box. Effect of treatment on glare was assessed using an experimental test method consisting of a panel with a high wattage central light emitting diode (LED) and a set of 7 lower wattage red LEDs radiating horizontally and vertically from the central light.
Comparisons of changes in mean values within treatment groups were tested for significance using two-tailed paired two sample t-tests with a threshold for significance set at p<0.01 (Bonferroni Correction for multiple paired t-tests). Differences between treatment groups with respect to mean values for pupil size over the course of the study were tested for significance using repeated measure ANOVA (which discards data from subjects lacking any data points). Differences in mean eye redness between treatment groups were evaluated using Kruskal-Wallis nonparametric testing. Differences in means between treatment groups at individual time points were tested for significance using one-way ANOVA.

[3] = 0.2% (w/v) solution, 30 min after treatment
[4] = 0.2% (w/v) solution, 1 hour after treatment
[5] = 0.2% (w/v) solution, 2 hours after treatment
[6] = 0.2% (w/v) solution, 4 hours after treatment
[7] = 0.2% (w/v) solution, 8 hours after treatment
[8] = 0.2% (w/v) solution, Baseline, prior to treatment
[9] = 0.4% (w/v) solution, 30 min after treatment
[10] = 0.4% (w/v) solution, 1 hour after treatment
[11] = 0.4% (w/v) solution, 2 hours after treatment
[12] = 0.4% (w/v) solution, 4 hours after treatment
[13] = 0.4% (w/v) solution, 8 hours after treatment
[14] = 0.4% (w/v) solution, Baseline, prior to treatment
[15] = 0.8% (w/v) solution, 30 min after treatment
[16] = 0.8% (w/v) solution, 1 hour after treatment
[17] = 0.8% (w/v) solution, 2 hours after treatment
[18] = 0.8% (w/v) solution, 4 hours after treatment
[19] = 0.8% (w/v) solution, 8 hours after treatment
[20] = 0.8% (w/v) solution, Baseline, prior to treatment

Cc1ccc(N(CC2=NCCN2)c2cccc(O)c2)cc1 [Phentolamine Mesylate, phentolamine mesylate]
eye redness ([1]; immediately after administration (FIG. 5)): increases | eye redness ([1]; measured prior to administration on days 4, 8, and 15 (FIG. 5)): returns to baseline | Maximum low contrast visual acuity [2, 3]: −0.10 LogMar | Mean low contrast visual acuity [2, 3]: −0.35 LogMar | Minimum low contrast visual acuity [2, 3]: −0.78 LogMar | Maximum low contrast visual acuity [2, 4]: −0.08 LogMar | Mean low contrast visual acuity [2, 4]: −0.32 LogMar | Minimum low contrast visual acuity [2, 4]: −0.80 LogMar | Maximum low contrast visual acuity [2, 5]: −0.11 LogMar | Mean low contrast visual acuity [2, 5]: −0.32 LogMar | Minimum low contrast visual acuity [2, 5]: −0.74 LogMar | Maximum low contrast visual acuity [2, 6]: 0.00 LogMar | Mean low contrast visual acuity [2, 6]: −0.30 LogMar | Minimum low contrast visual acuity [2, 6]: −0.76 LogMar | Maximum low contrast visual acuity [2, 7]: −0.08 LogMar | Mean low contrast visual acuity [2, 7]: −0.30^e LogMar | Minimum low contrast visual acuity [2, 7]: −0.72 LogMar | Maximum low contrast visual acuity [2, 8]: −0.06 LogMar | Mean low contrast visual acuity [2, 8]: −0.34^d LogMar | Minimum low contrast visual acuity [2, 8]: −0.80 LogMar | Maximum low contrast visual acuity [2, 9]: 0.00 LogMar | Mean low contrast visual acuity [2, 9]: −0.24 LogMar | Minimum low contrast visual acuity [2, 9]: −0.70 LogMar | Maximum low contrast visual acuity [2, 10]: −0.04 LogMar | Mean low contrast visual acuity [2, 10]: −0.24 LogMar | Minimum low contrast visual acuity [2, 10]: −0.78 LogMar | Maximum low contrast visual acuity [2, 11]: 0.00 LogMar | Mean low contrast visual acuity [2, 11]: −0.22 LogMar | Minimum low contrast visual acuity [2, 11]: −0.64 LogMar | Maximum low contrast visual acuity [2, 12]: 0.00 LogMar | Mean low contrast visual acuity [2, 12]: −0.20 LogMar | Minimum low contrast visual acuity [2, 12]: −0.70 LogMar | Maximum low contrast visual acuity [2, 13]: 0.00 LogMar | Mean low contrast visual acuity [2, 13]: −0.22 LogMar | Minimum low contrast visual acuity [2, 13]: −0.64 LogMar | Maximum low contrast visual acuity [2, 14]: −0.10 LogMar | Mean low contrast visual acuity [2, 14]: −0.28 LogMar | Minimum low contrast visual acuity [2, 14]: −0.74 LogMar | mean low contrast acuity compared to baseline ([2]; 0.4% (w/v), 1, 2, 4, and 8 hours post treatment): significant increases | Maximum low contrast visual acuity [2, 15]: −0.02 LogMar | Mean low contrast visual acuity [2, 15]: −0.28 LogMar | Minimum low contrast visual acuity [2, 15]: −0.76 LogMar | Maximum low contrast visual acuity [2, 16]: 0.00 LogMar | Mean low contrast visual acuity [2, 16]: −0.25 LogMar | Minimum low contrast visual acuity [2, 16]: −0.62 LogMar | Maximum low contrast visual acuity [2, 17]: 0.00 LogMar | Mean low contrast visual acuity [2, 17]: −0.22 LogMar | Minimum low contrast visual acuity [2, 17]: −0.60 LogMar | Maximum low contrast visual acuity [2, 18]: 0.00 LogMar | Mean low contrast visual acuity [2, 18]: −0.22 LogMar | Minimum low contrast visual acuity [2, 18]: −0.70 LogMar | Maximum low contrast visual acuity [2, 19]: 0.00 LogMar | Mean low contrast visual acuity [2, 19]: −0.25 LogMar | Minimum low contrast visual acuity [2, 19]: −0.78 LogMar | Maximum low contrast visual acuity [2, 20]: −0.11 LogMar | Mean low contrast visual acuity [2, 20]: −0.34 LogMar | Minimum low contrast visual acuity [2, 20]: −0.78 LogMar | mean low contrast acuity compared to baseline ([2]; 0.8% (w/v), all post-treatment time points): significant increases | maximal mean increase in low contrast visual acuity ([2]; 0.8% (w/v), at 2 hours): 0.12 Log Mar | improvement in low contrast vision ([2]; 0.8% (w/v), at 2 hours, equivalent of the maximal mean increase): ~6 letters on a Snellen chart | mean low contrast visual acuity, 0.2% (w/v) versus 0.4% and 0.8% (w/v) (ad hoc Fisher's test) ([2]; 2 hours post-dosing, P<0.05): significant differences
